# Reference: patent publication EP0740252A2, “Apparatus, method, and standard curve for measuring clearance” (KUREHA KAGAKU KOGYO KABUSHIKI KAISHA, priority 1995, dated 1996)
# Where “and” joins values, the source holds several entries; their conditions need not be identical. Equal entries are not always repeated.
# Columns and labels:
# [1] = Meglumine iothalamate clearance from one plasma sample by first standard function, dog; format: in vivo, female beagle dogs; settings: healthy dog 1919 (two tests), first standard function (Fig. 18), per blood collection time (20-90 min)
# Procedure: A first standard function [CL × T - Cp/D curve] was formed following the same procedures as in Example 1. The first clearance calculation program 34 was executed. In this execution, the clearances of the four dogs (two tests were conducted for dog Nos. 1919 and 1367 at an interval of two months) in Example 12 were calculated by the first standard function (Fig. 18) obtained in Example 12, using the data for the respective blood collection times (except for the values obtained 5 min after the administration). More specifically, the ratio values of the meglumine iothalamate concentrations (Cp) in the plasma samples corresponding to the respective blood collection times to the meglumine iothalamate dose (D) were calculated, and the products of the clearance (CL) and the blood collection times (T) were calculated from the first standard function using the ratio values. The products were divided by the blood collection times (T), respectively, thereby obtaining the clearances (CL).
# [2] = Meglumine iothalamate clearance by AUC method, dog; format: in vivo, female beagle dogs; settings: healthy dog 1919 (two tests at an interval of two months), 3% meglumine iothalamate solution 0.3 mℓ/kg i.v.
# Procedure: A total of […] female beagle dogs (body weight: 8.5 to 14 kg) consisting of one healthy dog (dog No. 1919), three partially nephrectomized dogs (chronic renal failure model) (dog Nos. 1367, 1253, and 1104) were used.
# A 3% inulin-containing iothalamate solution was administered once in the amount of 0.3 mℓ/kg to each beagle dog from its foreleg vein. The meglumine iothalamate in the 3% inulin-containing iothalamate solution was obtained by diluting a conray injection solution (60 W/V%) (meglumine iothalamate injection solution of the Japanese Pharmacopoeia, available from DAIICHI PHARMACEUTICAL CO., LTD.) with saline to adjust the concentration to 3%.
# Blood collection operations were performed five times with intervals after the administration. The blood collection times were, e.g., 5 min, 20 min, 40 min, 60 min, and 90 min after the administration for the healthy dog, and, e.g., 5 min, 40 min, 80 min, 120 min, and 180 min after the administration for other dogs.
# The concentration of meglumine iothalamate in the plasma was measured as follows. 400 µℓ of a 0.1N-HCl-methanol (1 : 9) solution mixture were added to 100 µℓ of a dog plasma sample, and the resultant solution was stirred well and subjected to centrifugal separation at 16,000 rpm for 10 min. The resultant supernatant was analyzed by liquid chromatography. […]
structure (smiles),measurement,setting,value
"CNC(=O)c1c(I)c(NC(C)=O)c(I)c(C(=O)O)c1I [Iothalamic Acid, N-methylglucamine-5-acetamido-2,4,6-triiodo-N-methylisophthalate]",clearance,"[1]; female, beagle, dog, plasma, intravenous, 0.3 mℓ/kg, read-out: Method of Present Invention: Clearance (2)",52.1 mL/min
same,Method of Present Invention: Clearance (2),[1]; blood collected at 20 min,57.4 mL/min
same,Method of Present Invention: Clearance (2),[1]; blood collected at 40 min,53.0 mL/min
same,Method of Present Invention: Clearance (2),[1]; blood collected at 50 min,48.9 mL/min
same,Method of Present Invention: Clearance (2),[1]; blood collected at 60 min,52.5 mL/min
same,Method of Present Invention: Clearance (2),[1]; blood collected at 70 min,48.4 mL/min
same,Method of Present Invention: Clearance (2),[1]; blood collected at 90 min,42.0 mL/min and 43.9 mL/min
same,clearance,"[2]; female, beagle, dog, plasma, iv, 0.3 mℓ/kg, read-out: Conventional Method: Clearance (1)",45.6 mL/min
same,Conventional Method: Clearance (1),[2],49.1 mL/min
